Drawing on publication PMC3161154 (Journal of the American Chemical Society, 2011), this text covers IC50 for five compounds.

For one data set, the target named is mTOR (Homo sapiens, UniProt P42345). The data set can be described thus: mTor kinase inhibition. It counts as biochemical. To be noted: read-out: mTOR (nM), mTor kinase inhibition.
A further data set relates to LNCap. Kind of data set: cytotoxicity, LNCap. It counts as cell-based. To be noted: read-out: LNCap (nM), cytotoxicity.
The test system of another data set is MDA-468. The data set can be described thus: cytotoxicity, MDA-468. It counts as cell-based. Particulars: read-out: MDA-468 (nM), cytotoxicity.
In a further data set the target is lymphocyte kinase. To be noted: read-out: IC50 lymphocyte kinase; cited from earlier work.
Data set [1] deals with phosphatidylinositol 3-kinase. To be noted: read-out: IC50 phosphatidylinositol 3-kinase; cited from earlier work.

pIC50: −log10 of the molar value.

Take `CO/C=C/C(=O)c1cc2cnc3c(=N)cc(NC(C)=O)c([nH]1)c23` [Compound 1, lymphostin]: the IC50 is 1.7 nM at mTOR, 38 nM in the data set on LNCap and 14 nM in the data set with MDA-468. In addition, the pIC50 (commonly −log10 of the IC50, conventionally taken in molar units) was 7.30 at lymphocyte kinase and 9.00 in data set [1].

For the compound `CCC(=O)Nc1cc(=N)c2ncc3cc(C(=O)C=COC)[nH]c1c32` [Compound 4, neolymphostin B], the IC50 at mTOR stood at 1.5 nM; in the data set on LNCap, 48 nM; in the data set with MDA-468, 85 nM.

Take `CC[C@H](C)C(=O)Nc1cc(=N)c2ncc3cc(C(=O)C=COC)[nH]c1c32` [Compound 5, neolymphostin C]: the IC50 is 1.8 nM on mTOR, 230 nM in the data set on LNCap and 700 nM with MDA-468.

On to neolymphostin A [Compound 3], for which the IC50 on mTOR turned out to be 0.8 nM; in the data set on LNCap it was 22 nM; in the data set on MDA-468 it was 58 nM.

Regarding `COC=CC(=O)c1cc2cnc3c(=N)cc(NC(=O)CC(C)C)c([nH]1)c23` [Compound 6, neolymphostin D], the IC50 was determined as 1.8 nM at mTOR, 230 nM in the data set on LNCap and 700 nM in the data set with MDA-468.
